The results in this text go back to patent US9266834B2, “1, 4-disubstituted 3-cyano-pyridone derivatives and their use as positive allosteric modulators of MGLUR2-receptors” (JANSSEN PHARMACEUTICALS, INC., priority 2006, dated 2016).

For one test, the target named is T1, human mGluR2 receptor (Homo sapiens, UniProt Q14416).
T1 construct: expressed in transfected cells; host or cells: CHO cells (membrane preparation)
T1 sequence (Q14416 19-872): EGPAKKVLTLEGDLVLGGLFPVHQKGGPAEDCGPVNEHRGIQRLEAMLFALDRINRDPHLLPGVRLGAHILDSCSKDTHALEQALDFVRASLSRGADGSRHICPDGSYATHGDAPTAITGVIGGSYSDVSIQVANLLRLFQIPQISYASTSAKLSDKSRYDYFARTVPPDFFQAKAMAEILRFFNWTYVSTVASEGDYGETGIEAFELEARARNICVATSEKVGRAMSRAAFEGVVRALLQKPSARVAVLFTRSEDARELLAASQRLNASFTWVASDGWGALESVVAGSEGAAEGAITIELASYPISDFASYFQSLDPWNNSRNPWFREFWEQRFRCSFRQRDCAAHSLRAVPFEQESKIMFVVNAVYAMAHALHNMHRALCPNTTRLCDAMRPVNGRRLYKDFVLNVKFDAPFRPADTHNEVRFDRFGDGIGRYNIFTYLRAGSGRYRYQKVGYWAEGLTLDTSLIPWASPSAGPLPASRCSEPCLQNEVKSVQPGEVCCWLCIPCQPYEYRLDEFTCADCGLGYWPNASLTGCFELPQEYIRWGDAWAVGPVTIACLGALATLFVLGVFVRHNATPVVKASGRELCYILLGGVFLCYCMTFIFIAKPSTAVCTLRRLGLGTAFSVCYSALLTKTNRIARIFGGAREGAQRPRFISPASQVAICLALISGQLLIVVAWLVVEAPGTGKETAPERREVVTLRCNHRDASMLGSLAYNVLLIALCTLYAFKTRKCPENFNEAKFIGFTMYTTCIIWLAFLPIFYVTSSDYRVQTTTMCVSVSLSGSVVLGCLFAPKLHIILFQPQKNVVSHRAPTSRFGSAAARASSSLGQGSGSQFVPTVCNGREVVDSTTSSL
Description: [35S]GTPγS binding assay (GTPγS-PAM): positive allosteric modulation in presence of glutamate at EC25, membranes from transfected CHO cells. In kind it is biochemical. Particulars: in presence of mGluR2 agonist glutamate at predetermined EC25 concentration, averages of duplicate values of 11-concentration response curves. An excerpt:
The compounds provided in the present invention are positive allosteric modulators of mGluR2. These compounds appear to potentiate glutamate responses by binding to an allosteric site other than the glutamate binding site. The response of mGluR2 to a concentration of glutamate is increased when compounds of Formula (I) are present. Compounds of Formula (I) are expected to have their effect substantially at mGluR2 by virtue of their ability to enhance the function of the receptor. The behaviour of positive allosteric modulators tested at mGluR2 using the [^35S]GTPγS binding assay method described below and which is suitable for the identification of such compounds, and more particularly the compounds according to Formula (I), are shown in Table 4.
[^35S]GTPγS Binding Assay
The [^35S]GTPγS binding is a functional membrane-based assay used to study G-protein coupled receptor (GPCR) function whereby incorporation of a non-hydrolysable form of GTP, [^35S]GTPγS (guanosine 5′-triphosphate, labelled with […] ^35S), is measured. The G-protein o subunit catalyzes the exchange of guanosine 5′-diphosphate (GDP) by guanosine triphosphate (GTP) and on activation of the GPCR by an agonist, [^35S]GTPγS, becomes incorporated and cannot be cleaved to continue the exchange cycle (Harper (1998) Current Protocols in Pharmacology 2.6.1-10, John Wiley & Sons, Inc.). […] Here we describe the use of the [^35S]GTPγS binding assay using membranes from cells transfected with the human mGluR2 receptor and adapted from Schaffhauser et al ((2003) Molecular Pharmacology 4:798-810) for the detection of the positive allosteric modulation (PAM) properties of the compounds of this invention.
CHO-cells were cultured to pre-confluence and stimulated with 5 mM butyrate for 24 hours, prior to washing in PBS, and then collection by scraping in homogenisation buffer (50 mM Tris-HCl buffer, pH 7.4, 4° C.). Cell lysates were homogenized briefly (15 s) using an ultra-turrax homogenizer. The homogenate was centrifuged at 23 500×g for 10 minutes and the supernatant discarded. The pellet was resuspended in 5 mM Tris-HCl, pH 7.4 and centrifuged again (30 000×g, 20 min, 4° C.). The final pellet was resuspended in 50 mM HEPES, pH 7.4 and stored at −80° C. in appropriate aliquots before use. Protein concentration was determined by the Bradford method (Bio-Rad, USA) with bovine serum albumin as standard.
Measurement of mGluR2 positive allosteric modulators in membranes containing human mGluR2 was performed using frozen membranes that were thawed and briefly homogenised prior to pre-incubation in 96-well microplates (15 μg/assay well, 30 minutes, 30° C.) in assay buffer (50 mM HEPES pH 7.4, 100 mM NaCl, 3 mM MgCl2, 50 μM GDP, 10 μg/ml saponin,) with increasing concentrations of positive allosteric modulator (from 0.3 nM to 50 μM) and either a minimal pre-determined concentration of glutamate (PAM assay), or no added glutamate. For the PAM assay, membranes were pre-incubated with glutamate at EC25 concentration, i.e. a concentration that gives 25% of the maximal response glutamate, and is in accordance to published data (Pin et al. (1999) Eur. J. Pharmacol. 375:277-294). After addition of [^35S]GTPγS (0.1 nM, f.c.) to achieve a total reaction volume of 200 μl, microplates were shaken briefly and further incubated to allow [^35S]GTPγS incorporation on activation (30 minutes, 30° C.). The reaction was stopped by rapid vacuum filtration over glass-fibre filter plates (Unifilter 96-well GF/B filter plates, Perkin-Elmer, Downers Grove, USA) microplate using a 96-well plate cell harvester (Filtermate, Perkin-Elmer, USA), and then by washing three times with 300 μl of ice-cold wash buffer (Na2PO4.2H2O 10 mM, NaH2PO4.H2O 10 mM, pH=7.4). Filters were then air-dried, and 40 μl of liquid scintillation cocktail (Microscint-O) was added to each well, and membrane-bound [^35S]GTPγS was measured in a 96-well scintillation plate reader (Top-Count, Perkin-Elmer, USA). […]
For orientation: GTPγS resists hydrolysis and so accumulates on activated G proteins.
With `CCCCn1ccc(N2CCN(c3nc(C)cc(C)n3)CC2)c(C#N)c1=O` [2-005], the “GTPgS - hR2 PAM pEC50” value worked out at 6.2.

The test is the same for the next values; noted with them: in presence of mGluR2 agonist glutamate at predetermined EC25 concentration, averages of duplicate values of 11-concentration response curves, read-out: GTPgS - hR2 PAM pEC50 (converted).
With `CC(C)CCn1ccc(OCc2ccc(SC(F)(F)F)cc2)c(C#N)c1=O` [1-287], the EC50 was 63.1 nM.

On to `CC(C)CCn1ccc(OCc2ccc(OCc3ccccc3)cc2)c(C#N)c1=O` [1-289], for which the EC50 is 79.4 nM.

As for `CC(C)CCn1ccc(Oc2ccc(N3CCCC3)cc2)c(C#N)c1=O` [1-291], the EC50 was 501 nM.

Turning to `N#Cc1c(Nc2ccc(Oc3ccncc3)cc2)ccn(CC2CC2)c1=O` [1-295], the EC50 was 3980 nM.

Turning to `CCCCn1ccc(N[C@H]2CC[C@H](c3ccccc3)CC2)c(C#N)c1=O` [1-297], the EC50 was 200 nM.

In the case of `CC(C)CCn1ccc(Nc2ccccc2)c(C#N)c1=O` [1-298], the EC50 is 3980 nM.

With `CC(C)CCn1ccc(Nc2ccc(N3CCOCC3)cc2)c(C#N)c1=O` [1-300], the EC50 is 2000 nM.

In the case of `CC(C)CCn1ccc(Nc2ccc(Oc3ccccc3)cc2)c(C#N)c1=O` [1-301], the EC50 is 200 nM.

On to `CC(C)CCn1ccc(Nc2ccc(Oc3ccncc3)cc2)c(C#N)c1=O` [1-302], for which the EC50 was 1260 nM.

As to `CC(C)CCn1ccc(N(C)Cc2ccccc2)c(C#N)c1=O` [1-303], the EC50 is 3160 nM.

With `CCCCn1ccc(OCc2ccc(-c3cccc(C)n3)cc2)c(C#N)c1=O` [1-306], the EC50 is 3980 nM.

For the compound `CCCCn1ccc(N2CCN(c3ccccn3)CC2)c(C#N)c1=O` [2-004], the EC50 was 2000 nM.

With `CCCCn1ccc(N2CCN(c3ncc(C4CC4)cn3)CC2)c(C#N)c1=O` [2-006], the EC50 was 158 nM.

On to `CCCCn1ccc(N2CCN(c3nccc(OC)n3)CC2)c(C#N)c1=O` [2-007], for which the EC50 is 1000 nM.

For the compound `CCCCn1ccc(N2CCN(c3nccc(NCC)n3)CC2)c(C#N)c1=O` [2-008], the EC50 is 1580 nM.

Take `CCCCn1ccc(N2CCN(c3cnc(N4CCOCC4)nc3)CC2)c(C#N)c1=O` [2-009]: the EC50 is 6310 nM.

As for `CC(C)CCn1ccc(N2CCN(c3ccccc3)CC2)c(C#N)c1=O` [2-011], the EC50 was 501 nM.

`COc1ccc(N2CCN(c3ccn(CCC(C)C)c(=O)c3C#N)CC2)cc1` [2-013]: the EC50 was 794 nM.

For `CC(C)CCn1ccc(N2CCN(Cc3cccc(C(F)(F)F)c3)CC2)c(C#N)c1=O` [2-014], the EC50 was 794 nM.

For the compound `CC(C)CCn1ccc(N2CCN(Cc3ccc(F)c(F)c3)CC2)c(C#N)c1=O` [2-015], the EC50 is 1260 nM.

Consider `CC(C)CCn1ccc(N2CCN(Cc3ccc4c(c3)OCO4)CC2)c(C#N)c1=O` [2-016], for which the EC50 was 631 nM.

For the compound `CC(C)CCn1ccc(N2CCN(CCc3ccccc3)CC2)c(C#N)c1=O` [2-017], the EC50 is 200 nM.

With `CC(C)CCn1ccc(N2CCN(C/C=C/c3ccccc3)CC2)c(C#N)c1=O` [2-018], the EC50 is 2510 nM.

Turning to `CC(C)CCn1ccc(N2CCN(CCOc3ccc(F)cc3)CC2)c(C#N)c1=O` [2-019], the EC50 was 6310 nM.

Turning to `CC(C)CCn1ccc(N2CCN(CCOc3cccc(C(F)(F)F)c3)CC2)c(C#N)c1=O` [2-020], the EC50 is 794 nM.

For `CC(C)CCn1ccc(N2CCN(Cc3ccccc3)CC2C)c(C#N)c1=O` (stereo not shown) [2-021], the EC50 is 1260 nM.

Consider `CC(C)CCn1ccc(N2CCN(c3ccccn3)CC2)c(C#N)c1=O` [2-024], for which the EC50 is 2000 nM.

`Cc1ccc(N2CCN(c3ccn(CCC(C)C)c(=O)c3C#N)CC2)nc1` [2-025]: the EC50 is 794 nM.

On to `CC(C)CCn1ccc(N2CCN(c3ccc(C#N)cn3)CC2)c(C#N)c1=O` [2-027], for which the EC50 is 6310 nM.

On to `CC(C)CCn1ccc(N2CCN(c3ncccn3)CC2)c(C#N)c1=O` [2-028], for which the EC50 is 794 nM.

As to `CC(C)CCn1ccc(N2CCN(c3ccc(-c4ccccc4)nn3)CC2)c(C#N)c1=O` [2-033], the EC50 was 2000 nM.

For `Cc1nnc(N2CCN(c3ccn(CCC(C)C)c(=O)c3C#N)CC2)c2ccccc12` [2-034], the EC50 is 3980 nM.

Consider `C[C@@H]1CN(c2ccn(CC3CC3)c(=O)c2C#N)C[C@H](C)N1c1ncccn1` [2-041], for which the EC50 was 3160 nM.
